Patent publication US6610297B1, “Peptide immunogens for vaccination against and treatment of allergy” (Novartis AG, priority 1996, dated 2003)
Where no end group is shown, it is not given here.

Key:
BSW17 [1] = assay: ELISA: binding of mimotope-displaying phage particles to coated BSW17; conditions: FIG. 5; phage titer 10^9 cfu/ml; 10 μg coated antibody
Description: (§1) 10 μg of BSW17 and various monoclonal antibodies are coated to the wells of COSTAR® plates following standard ELISA procedures. After blocking with BSA, the wells are incubated with 100 μl of standard ELISA incubation buffer containing bacteriophage particles obtained from phage-infected bacterial culture supernatants with a phage titer of 10^9 cfu/ml. After washing, the plates are incubated with 5 μg of horseradish peroxidase (HRP)-coupled anti-M13 antiserum (Pharmacia, Uppsala, Sweden) in incubation buffer. All incubations are carried out at room temperature for 1 hour. After final washing, phage particles bound to the coated antibodies are visualized via the bound HRP-anti M13 serum by chromogenic substrate development following standard ELISA procedure. […] As negative non-antibody control, recombinant FcεRI α-chain and as positive control, wells coated with polyclonal anti-M13 antiserum are included.

human IgE = assay: Anti-IgE response in rabbits immunized with BSW17 mimotope displaying phage (dot ELISA of serum); assay type: in vivo; conditions: rabbit serum 1:200 after third boost
Description: To test the feasibility of a BSW17 mimotope-based vaccine approach, rabbits are immunized with phage particles displaying BSW17 mimotope peptides and helper phage VCS M13 as control, respectively. 10^12 cfu of freshly prepared phage particles are dialyzed against PBS at 4°. 1 ml is emulsified with complete Freund's adjuvant for the first immunization, or with 1 ml incomplete Freund's adjuvant for boosting. Immunization is repeated subcutaneously every 14 days. After the third boost, 12 ml of blood are taken, clotted for 4 hours at room temperature in glass vials and centrifuged for 10 minutes at 2000 g. The supernatants are tested for the presence of anti-human IgE antibodies by ELISA. Human IgE from three different individuals (SUS11-IgE; PS-IgE; WT-IgE) is diluted in PBS at a concentration of 50 μg/ml and 1 μl aliquots are dotted onto nitrocellulose. Nitrocellulose is blocked in TBS containing 1.5% casein for 1 hour. Rabbit serum is diluted 1:200 in TBS containing 1.5% casein and incubated overnight. Washing is performed in TBS, TBS-0.05% Tween 20 and TBS for 10 minutes each. Developing goat anti-rabbit-HRP is 1:1.000 diluted in TBS containing 1.5% casein and incubated for 4 hours. Washing and staining is performed as described. […] However, in addition to a massive immune response to the bacteriophage pVIII coat protein, sera of rabbits immunized with BSW17 mimotope phages also contain strongly elevated levels of antibodies which specifically recognize human IgE: […]

BSW17 [2] = assay: Recognition of phage-displayed peptides by BSW17 (phage display library screening); assay type: binding; design: key: + + +: +(++), +/− = intensity of recognition by BSW 17; +(++), +/− = intensity of recognition by BSW 17; +(++), +/− = intensity of recognition by BSW 17; + /−: +(++), +/− = intensity of recognition by BSW 17; conditions: phage-displayed circular peptides, group A
Description: Bacteriophage particles specifically recognized by BSW17 are identified by biopanning of phage libraries displaying linear or circular random peptides from 6 to 15 amino acid residues in length fused to phage peptides pIII and pVIII, respectively. For amplification of phage libraries, 2 ml of a liquid culture of E. coli XL-I blue grown in SB medium to OD600=1.0 are incubated with 10^10 phages for 15 minutes at room temperature. 10 ml of SB medium containing […] of tetracycline and 20 μg/ml of carbenicillin are added and 10 μl, 1 μl and 0.1 μl, respectively, are plated on LB plates containing 100 μg/ml of carbenicillin. The culture is incubated at 37° with vigorous shaking for one hour, then 100 ml of SB containing 10 μg/ml of tetracycline and 50 μg/ml of carbenicillin are added and incubation is continued for one hour. 10^12 cfu of VCS M13 helper phage are added. After 2 hours with vigorous shaking at 37°. kanamycin is added to a final concentration of 70 μg/ml and incubation continued overnight. After centrifugation at 4000 g and 4° for 20 minutes, supernatants are mixed with 38 ml of an ice-cold sterile filtered solution of 12% NaCl and 16% PEG 8000, cooled on ice for 30 minutes and centrifuged for 30 minutes at 10000 g at 4°. The phage pellet is solubilized in 2 ml of TBS containing 1.5% casein and stored at 4°. For biopanning, COSTAR® RIA plates (Costar 3690) are coated over-night at 4° with 20 μg/ml of BSW17 in 0.1 M carbonate buffer, pH 9.6, and thereafter blocked with TBS containing 1.5% casein. 2×10^11 cfu of phages are added and incubated at 37° for 2 hours, then washed ten times with PBS/0.1% Tween 20. The wells are rinsed with water and the bound phages eluted with a total of 200 μl of 0.1 M HCl, pH 2.2 for 10 minutes. Eluted phages are neutralized with 2 M Tris base and amplified as described above.
For the selection of positive clones 50 μl of a E. coli XL-I blue liquid culture grown in SB-medium to OD600=1.0 are incubated with 1 μl of a 10^−8 dilution of amplified phages after the 3rd round of panning for 15 minutes at room temperature, then plated on LB plates containing 100 μg/ml of carbenicillin and grown overnight. Colonies are randomly picked and plated on LB plates containing 100 μg/ml of carbenicillin. After 4 hours at 37°, nitrocellulose filters soaked with 10 mM of IPTG are put on top and incubation continued overnight at 32°. Filters are removed and incubated at 37° for 30 minutes in a CHCl3-atmosphere. […]
The nucleotide sequence of the DNA encoding these peptides was determined. […]

[3] = tested on: 8E7, 3G9, 5H10 (monoclonal anti-Cε3 antibodies) and 5H5/F8 (against human FcεRIα); assay: ELISA: binding of mimotope-displaying phage particles to other coated monoclonal antibodies; conditions: FIG. 5; phage titer 10^9 cfu/ml; 10 μg coated antibody
Description: as §1

BSW17/IgE interaction = assay: Competition ELISA: inhibition of BSW17-HRP/IgE interaction by sera of immunized rabbits; assay type: in vivo, human; conditions: rabbit serum 1:50, BSW17-HRP 1:50000
Description: After washing, mAb BSW17 labeled with horseradish peroxidase (BSW17-HRP) is added in a 1:50000 dilution in TBS containing 1.5% casein for 4 hours. Subsequent washing and staining is performed as described.

BSW17/IgE binding = assay: Competition RIA: binding of 125I-labelled IgE to BSW17 in the presence of phage particles; design: species or system human; conditions: FIG. 6; for Inhibition of labelled IgE binding to BSW17, equal to non-labelled IgE concentration: 10^11 cfu/ml of phage particles, estimated from standard inhibition curve
Description: Bacterial cells are grown in SB containing 10 μg/ml of tetracycline and 50 μg/ml of carbenicillin to OD600=0.4, then VCS M13 helper phage is added and incubation continued for 2 hours at 37°. Then kanamycin is added to a final concentration of 70 μg/ml and incubation continued overnight. Phage particles are precipitated with polyethyleneglycol. Soft RIA plates are coated with 20 μg/ml of BSW17 in 0.1 M carbonate buffer pH 9.6 and then blocked with TBS containing 1.5% casein. Human IgE is ^125I-labelled by the chloramine-T method and 100000 cpm per well are used for binding to BSW17 coated to the RIA plates in the presence of increasing concentrations of non-labelled IgE (standard curve) or phage particles, respectively. All experiments are performed at room temperature and plates are washed 3 times with 0.9% NaCl+0.05% Tween 20, cut in pieces and each well was measured in a γ-counter for 1 minute.
Closed circles show a standard inhibition curve by unlabelled IgE to allow an estimation of inhibition of labeled IgE binding in the presence of 10^11 cfu/ml of phage particles. The inhibition achieved with the phage clones is equal to non-labelled IgE concentrations of 1 μg/ml and 1.7 μg/ml, respectively.

BSW17 [4] = assay: ELISA: recognition of coated mimotope conjugates by BSW17; assay type: binding; conditions: FIGS. 8a, 8b, 9a, 9b
Description: Microtiter plate wells are coated with 1 μg each of SDS236, SDS237 or free KLH and incubated with increasing concentrations of BSW17. Bound antibody is detected with goat anti-mouse IgG-HRP (gamIgG-HRP). The data shown represents means of duplicates minus background binding to uncoated (BSA-blocked) wells.
FIG. 8b summarizes ELISA data obtained with various BSW17 mimotope conjugates coupled to the carrier protein using several chemical coupling procedures. Microtiter plate wells are coated with 5 μg each of the mimotope conjugates, or free KLH, and incubated with 10 μg of BSW17. Bound antibody is detected with gamIgG-HRP. The data shown represents means of duplicates minus background binding to uncoated (BSA-blocked) wells. In contrast to free KLH, each BSW17 mimotope conjugate is found to be recognized by BSW17.
In FIGS. 9a and 9b it is shown that BSW17 mimotopes coupled to KLH or BSA are specifically recognized by BSW17 and not by the non-related monoclonal antibodies 3G9 (anti-human Cε3) and 5H5/F8 (anti-human RIα). Again, microtiter plate wells are coated with 5 μg each of the mimotope conjugates shown and incubated with 10 μg of the corresponding monoclonal antibody. Bound antibody is detected with gamIgG-HRP. The data shown represents means of duplicates minus background binding to uncoated (BSA-blocked) wells.

human IgM = human IgM (Homo sapiens, UniProt P01871); assay: Isotype specificity ELISA of sera of immunized rabbits: IgM; assay type: in vivo; conditions: FIG. 12; serum 1:50
Description: The isotype specificity of the anti-human IgE immune response in the immunized rabbits is monitored by ELISA: microtiter plate wells are each coated with 3 μg of human IgE (SUS-11), IgA, IgG, and IgM, respectively, and incubated with 100 μl of serum samples, diluted 1:50 with ELISA incubation buffer. Rabbit antibodies bound by the immobilized human antibodies are detected by incubation with goat garIgG-HRP. The measured OD405 values are corrected by the read-out obtained with 1:50 diluted pre-immune serum of each corresponding rabbit, diluted 1:50. The data given in FIG. 12 represents mean values of duplicate measurements.

human IgE (human) = human IgE (human) (UniProt P01854); assay: cell-based or functional assay
Chain of human IgE (human) (P01854 other isoform, or with tags, fused parts or gaps): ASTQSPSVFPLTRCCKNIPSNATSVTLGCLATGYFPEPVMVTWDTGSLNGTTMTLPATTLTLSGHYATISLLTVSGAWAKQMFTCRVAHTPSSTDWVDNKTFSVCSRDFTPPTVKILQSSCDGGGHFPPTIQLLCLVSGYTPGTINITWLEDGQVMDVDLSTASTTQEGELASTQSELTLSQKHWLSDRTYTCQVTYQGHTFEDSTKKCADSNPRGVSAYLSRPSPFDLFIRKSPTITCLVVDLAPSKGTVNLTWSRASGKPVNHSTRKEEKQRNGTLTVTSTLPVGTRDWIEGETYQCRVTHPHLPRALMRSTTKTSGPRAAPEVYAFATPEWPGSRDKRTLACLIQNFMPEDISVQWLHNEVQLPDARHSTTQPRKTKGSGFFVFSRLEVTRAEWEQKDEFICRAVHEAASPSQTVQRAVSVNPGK

Chain of BSW17/IgE interaction (P01854 1-428 isoform P01854-1): as the sequence (P01854 other isoform, or with tags, fused parts or gaps) above
Chain of human IgE (P01854 1-428 isoform P01854-1): as the sequence (P01854 other isoform, or with tags, fused parts or gaps) above
Chain of human IgM (P01871 1-433 limits assumed): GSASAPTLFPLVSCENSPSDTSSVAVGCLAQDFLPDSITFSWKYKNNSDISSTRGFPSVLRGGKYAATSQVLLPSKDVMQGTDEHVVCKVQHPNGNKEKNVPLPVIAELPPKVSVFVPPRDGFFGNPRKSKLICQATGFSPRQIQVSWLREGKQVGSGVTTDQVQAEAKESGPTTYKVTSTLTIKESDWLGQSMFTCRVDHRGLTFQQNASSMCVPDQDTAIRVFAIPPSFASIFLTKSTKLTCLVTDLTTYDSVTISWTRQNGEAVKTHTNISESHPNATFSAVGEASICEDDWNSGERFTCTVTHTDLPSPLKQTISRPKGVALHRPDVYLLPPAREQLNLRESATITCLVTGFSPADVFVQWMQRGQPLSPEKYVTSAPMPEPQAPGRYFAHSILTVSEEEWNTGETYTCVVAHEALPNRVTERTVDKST
Chain of human IgM (P01591 23-159 partner): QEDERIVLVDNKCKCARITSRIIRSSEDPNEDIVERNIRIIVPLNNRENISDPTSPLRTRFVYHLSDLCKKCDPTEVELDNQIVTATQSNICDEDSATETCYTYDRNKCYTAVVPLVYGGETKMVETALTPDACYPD

CINHRGYWVC (cysteine pairing not given here) [PhBSW.29-8]
Binding of phage particles to BSW17 (BSW17 [1]): very specifically bind to BSW17
Recognition of IgE (relative OD) PS-IgE (human IgE): 9.0 ± 0.4 relative OD
Recognition of IgE (relative OD) SUS11-IgE (human IgE): 16.5 ± 0.7 relative OD
Recognition of IgE (relative OD) WT-IgE (human IgE): 25.0 ± 1.0 relative OD
intensity of recognition by BSW 17 (BSW17 [2]): + + +
Binding of phage particles to other antibodies (8E7, 3G9, 5H10, 5H5/F8) [3]: to no other antibodies
Recognition of different IgE (% inhibition) PS-IgE (BSW17/IgE interaction): 48%
Recognition of different IgE (% inhibition) SUS11-IgE (BSW17/IgE interaction): 52%
Recognition of different IgE (% inhibition) WT-IgE (BSW17/IgE interaction): 65%
Recognition of different IgE (% inhibition) Zavasal-IgE (BSW17/IgE interaction): 47%
Inhibition of the binding of BSW17 to IgE (in words) (BSW17/IgE binding): inhibit the binding of BSW17 to IgE
Inhibition of labelled IgE binding to BSW17, equal to non-labelled IgE concentration (BSW17/IgE binding): 1.7 µg/mL

CRRHNYGFWVC (cysteine pairing not given here) [PhBSW.6-9]
Binding of phage particles to BSW17 (BSW17 [1]): very specifically bind to BSW17
Recognition of IgE (relative OD) PS-IgE (human IgE): 8.0 ± 0.6 relative OD
Recognition of IgE (relative OD) SUS11-IgE (human IgE): 5.0 ± 0.2 relative OD
Recognition of IgE (relative OD) WT-IgE (human IgE): 21.0 ± 1.0 relative OD
intensity of recognition by BSW 17 (BSW17 [2]): ++
Binding of phage particles to other antibodies (8E7, 3G9, 5H10, 5H5/F8) [3]: to no other antibodies
Recognition of different IgE (% inhibition) PS-IgE (BSW17/IgE interaction): 63%
Recognition of different IgE (% inhibition) SUS11-IgE (BSW17/IgE interaction): 34%
Recognition of different IgE (% inhibition) WT-IgE (BSW17/IgE interaction): 65%
Recognition of different IgE (% inhibition) Zavasal-IgE (BSW17/IgE interaction): 51%
Inhibition of the binding of BSW17 to IgE (in words) (BSW17/IgE binding): inhibit the binding of BSW17 to IgE
Inhibition of labelled IgE binding to BSW17, equal to non-labelled IgE concentration (BSW17/IgE binding): 1 µg/mL

CTRLHTGYWVC (cysteine pairing not given here) [Seq.id.no. 20]
intensity of recognition by BSW 17 (BSW17 [2]): +

Cys Thr Leu Ser Val Phe Gly Tyr Trp Val Cys (CTLSVFGYWVC; cysteine pairing not given here; also: circular) [Seq.id.no. 21]
intensity of recognition by BSW 17 (BSW17 [2]): + /−

cyclic GEFCINHRGYWVCGDPA-KLH [SDS236]
Recognition of conjugate by BSW17 (BSW17 [4]): recognized by BSW17 in a dose-dependent manner

cyclic GEFCRRHNYGFWVCGDPA-KLH [SDS214]
Recognition of human IgM by serum of immunized rabbit (human IgM): partial recognition of human IgM

keyhole limpet hemocyanin [KLH]
Recognition of conjugate by BSW17 (BSW17 [4]): no binding

linear KTKGSGFFVF-KLH [SDS237]
Recognition of conjugate by BSW17 (BSW17 [4]): recognized by BSW17 in a dose-dependent manner

monoclonal antibody BSW17
Specific histamine release (%), A: during sensitization with IgE and BSW17; Experiment 1 (human IgE (human)): 3.6%
Specific histamine release (%), A: during sensitization with IgE and BSW17; Experiment 2 (human IgE (human)): 3%
Specific histamine release (%), A: during sensitization with IgE and BSW17; Experiment 3 (human IgE (human)): 4.4%
Specific histamine release (%), B: after triggering with Le27; cells sensitized with IgE and BSW17; Experiment 1 (human IgE (human)): 3.1%
Specific histamine release (%), B: after triggering with Le27; cells sensitized with IgE and BSW17; Experiment 2 (human IgE (human)): 1.5%
Specific histamine release (%), B: after triggering with Le27; cells sensitized with IgE and BSW17; Experiment 3 (human IgE (human)): 0.9%
